ChEMBL document CHEMBL3046287, “Azoxystrobin resistance of French Mycosphaerella graminicola strains assessed by four in vitro bioassays and by screening of G143A substitution” (Crop Prot, 2010)
Values after ≈ are worked out from the molar mass of the structure shown.

How the values were obtained:
Type in all cases: functional, organism-based
[1] = system: Zymoseptoria tritici; experiment: Antifungal activity against azoxystrobin-sensitive Zymoseptoria tritici T0470 carrying cytochrome-b G143 allele assessed as fungal growth inhibition after 6 days at 20 degC by microplate without alamar blue assay; conditions: T0470, 144 h
[2] = system: Zymoseptoria tritici; experiment: Antifungal activity against azoxystrobin-sensitive Zymoseptoria tritici T0466 carrying cytochrome-b G143 allele assessed as fungal growth inhibition after 6 days at 20 degC by microplate without alamar blue assay; conditions: T0466, 144 h
[3] = system: Zymoseptoria tritici; experiment: Antifungal activity against azoxystrobin-sensitive Zymoseptoria tritici T0473 carrying cytochrome-b G143 allele assessed as fungal growth inhibition after 6 days at 20 degC by microplate without alamar blue assay; conditions: T0473, 144 h
[4] = system: Zymoseptoria tritici; experiment: Antifungal activity against azoxystrobin-sensitive Zymoseptoria tritici T0384 carrying cytochrome-b G143 allele assessed as inhibition of spore germination after 2 days at 18 degC by spotting on PDA medium assay; conditions: T0384, 48 h
[5] = system: Zymoseptoria tritici; experiment: Antifungal activity against azoxystrobin-sensitive Zymoseptoria tritici T0365 carrying cytochrome-b G143 allele assessed as inhibition of spore germination after 2 days at 18 degC by spotting on PDA medium assay; conditions: T0365, 48 h
[6] = system: Zymoseptoria tritici; experiment: Antifungal activity against azoxystrobin-sensitive Zymoseptoria tritici T083 carrying cytochrome-b G143 allele assessed as inhibition of spore germination after 2 days at 18 degC by spotting on PDA medium assay; conditions: T083, 48 h
[7] = system: Zymoseptoria tritici; experiment: Antifungal activity against azoxystrobin-resistant Zymoseptoria tritici T049 carrying cytochrome-b A143 allele assessed as inhibition of spore germination after 2 days at 18 degC by spotting on PDA medium assay; conditions: T049, 48 h
[8] = system: Zymoseptoria tritici; experiment: Antifungal activity against azoxystrobin-sensitive Zymoseptoria tritici T083 carrying cytochrome-b G143 allele assessed as fungal colony perpendicular diameter changes after 10 days at 18 degC by spotting on PDA medium assay; conditions: T083, 240 h
[9] = system: Zymoseptoria tritici; experiment: Antifungal activity against azoxystrobin-resistant Zymoseptoria tritici T0262 carrying cytochrome-b A143 allele assessed as fungal colony perpendicular diameter changes after 10 days at 18 degC by spotting on PDA medium assay; conditions: T0262, 240 h
[10] = system: Zymoseptoria tritici; experiment: Antifungal activity against azoxystrobin-resistant Zymoseptoria tritici T0451 carrying cytochrome-b A143 allele assessed as fungal colony perpendicular diameter changes after 10 days at 18 degC by spotting on PDA medium assay; conditions: T0451, 240 h
[11] = system: Zymoseptoria tritici; experiment: Antifungal activity against azoxystrobin-sensitive Zymoseptoria tritici T0278 carrying cytochrome-b G143 allele assessed as fungal colony perpendicular diameter changes after 10 days at 18 degC by spotting on PDA medium assay; conditions: T0278, 240 h
[12] = system: Zymoseptoria tritici; experiment: Antifungal activity against azoxystrobin-sensitive Zymoseptoria tritici T0384 carrying cytochrome-b G143 allele assessed as fungal colony perpendicular diameter changes after 10 days at 18 degC by spotting on PDA medium assay; conditions: T0384, 240 h
[13] = system: Zymoseptoria tritici; experiment: Antifungal activity against azoxystrobin-sensitive Zymoseptoria tritici T0365 carrying cytochrome-b G143 allele assessed as fungal colony perpendicular diameter changes after 10 days at 18 degC by spotting on PDA medium assay; conditions: T0365, 240 h
[14] = system: Zymoseptoria tritici; experiment: Antifungal activity against azoxystrobin-sensitive Zymoseptoria tritici T0148 carrying cytochrome-b G143 allele assessed as fungal colony perpendicular diameter changes after 10 days at 18 degC by spotting on PDA medium assay; conditions: T0148, 240 h
[15] = system: Zymoseptoria tritici; experiment: Antifungal activity against azoxystrobin-resistant Zymoseptoria tritici T055 carrying cytochrome-b A143 allele assessed as fungal colony perpendicular diameter changes after 10 days at 18 degC by spotting on PDA medium assay; conditions: T055, 240 h
[16] = system: Zymoseptoria tritici; experiment: Antifungal activity against azoxystrobin-resistant Zymoseptoria tritici T049 carrying cytochrome-b A143 allele assessed as fungal colony perpendicular diameter changes after 10 days at 18 degC by spotting on PDA medium assay; conditions: T049, 240 h
[17] = system: Zymoseptoria tritici; experiment: Antifungal activity against azoxystrobin-resistant Zymoseptoria tritici T032 carrying cytochrome-b A143 allele assessed as fungal colony perpendicular diameter changes after 10 days at 18 degC by spotting on PDA medium assay; conditions: T032, 240 h
[18] = system: Zymoseptoria tritici; experiment: Antifungal activity against azoxystrobin-sensitive Zymoseptoria tritici T0466 carrying cytochrome-b G143 allele assessed as inhibition of spore germination after 2 days at 18 degC by spotting on PDA medium assay; conditions: T0466, 48 h
[19] = system: Zymoseptoria tritici; experiment: Antifungal activity against azoxystrobin-sensitive Zymoseptoria tritici T0468 carrying cytochrome-b G143 allele assessed as inhibition of spore germination after 2 days at 18 degC by spotting on PDA medium assay; conditions: T0468, 48 h
[20] = system: Zymoseptoria tritici; experiment: Antifungal activity against azoxystrobin-sensitive Zymoseptoria tritici T0384 carrying cytochrome-b G143 allele assessed as fungal growth inhibition after 6 days at 20 degC by microplate without alamar blue assay; conditions: T0384, 144 h
[21] = system: Zymoseptoria tritici; experiment: Antifungal activity against azoxystrobin-sensitive Zymoseptoria tritici T0213 carrying cytochrome-b G143 allele assessed as fungal colony perpendicular diameter changes after 10 days at 18 degC by spotting on PDA medium assay; conditions: T0213, 240 h
[22] = system: Zymoseptoria tritici; experiment: Antifungal activity against azoxystrobin-resistant Zymoseptoria tritici T0451 carrying cytochrome-b A143 allele assessed as fungal growth inhibition after 6 days at 20 degC by microplate without alamar blue assay; conditions: T0451, 144 h
[23] = system: Zymoseptoria tritici; experiment: Antifungal activity against azoxystrobin-resistant Zymoseptoria tritici T0293 carrying cytochrome-b A143 allele assessed as fungal growth inhibition after 6 days at 20 degC by microplate without alamar blue assay; conditions: T0293, 144 h
[24] = system: Zymoseptoria tritici; experiment: Antifungal activity against azoxystrobin-resistant Zymoseptoria tritici T032 carrying cytochrome-b A143 allele assessed as fungal growth inhibition after 6 days at 20 degC by microplate without alamar blue assay; conditions: T032, 144 h
[25] = system: Zymoseptoria tritici; experiment: Antifungal activity against azoxystrobin-sensitive Zymoseptoria tritici T0470 carrying cytochrome-b G143 allele assessed as fungal colony perpendicular diameter changes after 10 days at 18 degC by spotting on PDA medium assay; conditions: T0470, 240 h
[26] = system: Zymoseptoria tritici; experiment: Antifungal activity against azoxystrobin-sensitive Zymoseptoria tritici T0464 carrying cytochrome-b G143 allele assessed as fungal colony perpendicular diameter changes after 10 days at 18 degC by spotting on PDA medium assay; conditions: T0464, 240 h
[27] = system: Zymoseptoria tritici; experiment: Antifungal activity against azoxystrobin-sensitive Zymoseptoria tritici T021 carrying cytochrome-b G143 allele assessed as fungal growth inhibition after 6 days at 20 degC by microplate without alamar blue assay; conditions: T021, 144 h
[28] = system: Zymoseptoria tritici; experiment: Antifungal activity against azoxystrobin-sensitive Zymoseptoria tritici T083 carrying cytochrome-b G143 allele assessed as fungal growth inhibition after 6 days at 20 degC by microplate without alamar blue assay; conditions: T083, 144 h
[29] = system: Zymoseptoria tritici; experiment: Antifungal activity against azoxystrobin-resistant Zymoseptoria tritici T0262 carrying cytochrome-b A143 allele assessed as fungal growth inhibition after 6 days at 20 degC by microplate without alamar blue assay; conditions: T0262, 144 h
[30] = system: Zymoseptoria tritici; experiment: Antifungal activity against azoxystrobin-sensitive Zymoseptoria tritici T0209 carrying cytochrome-b G143 allele assessed as fungal colony perpendicular diameter changes after 10 days at 18 degC by spotting on PDA medium assay; conditions: T0209, 240 h

## CO/C=C(/C(=O)OC)c1ccccc1Oc1cc(Oc2ccccc2C#N)ncn1 [AZOXYSTROBIN]
[1]
  IC50: < 0.01 µg/mL
[2]
  IC50: < 0.01 µg/mL
[3]
  IC50: 0.01 µg/mL (≈ 0.0248 µM)
[4]
  IC50: 0.76 µg/mL (≈ 1.88 µM)
[5]
  IC50: 0.06 µg/mL (≈ 0.149 µM)
[6]
  IC50: 0.08 µg/mL (≈ 0.198 µM)
[7]
  IC50: 11.6 µg/mL (≈ 28.7 µM)
[8]
  IC50: 0.22 µg/mL (≈ 0.545 µM)
[9]
  IC50: 9.91 µg/mL (≈ 24.6 µM)
[10]
  IC50: 14.7 µg/mL (≈ 36.5 µM)
[11]
  IC50: 0.17 µg/mL (≈ 0.421 µM)
[12]
  IC50: 0.33 µg/mL (≈ 0.818 µM)
[13]
  IC50: 0.11 µg/mL (≈ 0.273 µM)
[14]
  IC50: 0.06 µg/mL (≈ 0.149 µM)
[15]
  IC50: 10.2 µg/mL (≈ 25.2 µM)
[16]
  IC50: 19.4 µg/mL (≈ 48.2 µM)
[17]
  IC50: 37.8 µg/mL (≈ 93.8 µM)
[18]
  IC50: 0.94 µg/mL (≈ 2.33 µM)
[19]
  IC50: 0.25 µg/mL (≈ 0.62 µM)
[20]
  IC50: 0.06 µg/mL (≈ 0.149 µM)
[21]
  IC50: 0.11 µg/mL (≈ 0.273 µM)
[22]
  IC50: > 100 µg/mL
[23]
  IC50: > 100 µg/mL
[24]
  IC50: > 100 µg/mL
[25]
  IC50: 0.06 µg/mL (≈ 0.149 µM)
[26]
  IC50: 0.25 µg/mL (≈ 0.62 µM)
[27]
  IC50: 0.22 µg/mL (≈ 0.545 µM)
[28]
  IC50: 0.5 µg/mL (≈ 1.24 µM)
[29]
  IC50: 11.7 µg/mL (≈ 28.9 µM)
[30]
  IC50: 0.14 µg/mL (≈ 0.347 µM)
